Results taken from PMC3218208 (Nature chemical biology, 2011).

Biological target: Enzyme I (EI, PtsI) (Escherichia coli, UniProt P08839)
Test: […] pyruvate/PEP isotope exchange assay with LC-MS/MS on purified enzyme
Assay type: biochemical

With `O=C(O)CCC(=O)C(=O)O` [αKG, α-ketoglutarate] the Ki was 1300 ± 100 µM.
